Assay results as given in the NIST ThermoML archive (doi:10.1016/j.jct.2016.12.031).
Numbers after ± are expanded uncertainties.

Conditions: Crystal; visual observation

A Normal melting temperature of 160.00 ± 1.1 °C was found for `CN(C)c1ccc(C(=C2C=CC(=[N+](C)C)C=C2)c2ccccc2)cc1.CN(C)c1ccc(C(=C2C=CC(=[N+](C)C)C=C2)c2ccccc2)cc1.O=C(O)C(=O)O.O=C([O-])C(=O)O.O=C([O-])C(=O)O` [Malachite green oxalate] in this work.

A Normal melting temperature of 300.00 ± 1.1 °C was found for `Cc1cc2nc3cc(C)c(N)cc3[n+](-c3ccccc3)c2cc1N.[Cl-]` [Safranine O] in this work.
